Source: PubChem BioAssay (NCI)
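Each compound was tested at five concentrations against cells in 96-well plates for 48 hours. GI50 marks 50% less growth. TGI marks complete inhibition of growth.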

How the values were obtained:
Assay in all cases: NCI anticancer screen, dose series, 48 h
786-0 renal = system: 786-0 renal
ACHN renal = system: ACHN renal
HS 578T breast = system: HS 578T breast
MDA-MB-231 breast = system: MDA-MB-231 breast
OVCAR-3 ovarian = system: OVCAR-3 ovarian
OVCAR-4 ovarian = system: OVCAR-4 ovarian
OVCAR-5 ovarian = system: OVCAR-5 ovarian
PC-3 prostate = system: PC-3 prostate
SK-MEL-2 melanoma = system: SK-MEL-2 melanoma
UACC-62 melanoma = system: UACC-62 melanoma

Row | SMILES | GI50 (786-0 renal) [µM] | TGI (786-0 renal) [µM] | GI50 (ACHN renal) [µM] | TGI (ACHN renal) [µM] | GI50 (HS 578T breast) [µM] | TGI (HS 578T breast) [µM] | GI50 (MDA-MB-231 breast) [µM] | TGI (MDA-MB-231 breast) [µM] | GI50 (OVCAR-3 ovarian) [µM] | TGI (OVCAR-3 ovarian) [µM] | GI50 (OVCAR-4 ovarian) [µM] | TGI (OVCAR-4 ovarian) [µM] | GI50 (OVCAR-5 ovarian) [µM] | TGI (OVCAR-5 ovarian) [µM] | GI50 (PC-3 prostate) [µM] | TGI (PC-3 prostate) [µM] | GI50 (SK-MEL-2 melanoma) [µM] | TGI (SK-MEL-2 melanoma) [µM] | GI50 (UACC-62 melanoma) [µM] | TGI (UACC-62 melanoma) [µM]
1 | N#Cc1c(N/N=C/c2c(Cl)cccc2Cl)nc(N)nc1N1CCCC1 | 3.93 | > 100 | 3.18 | > 100 | 3.05 | > 100 | 3.25 | 42.2 | 0.878 | > 100 | > 100 | > 100 | 8.31 | > 100 | 2.89 | 40 | 5.55 | > 100 | 1.47 | > 100
2 | Nc1ccc(N)c2c1C(=O)c1cccc([N+](=O)[O-])c1C2=O | 2.72 | 32.1 | 1.93 | > 100 | 2.47 | 26.2 | 27 | > 100 | 5.19 | > 100 | 11.9 | > 100 | 8.19 | > 100 | 15.6 | > 100 | 7.74 | > 100 | 1.2 | 5.65
3 | O=C(c1ccccc1)c1ccc(N2C(=O)C3C4c5ccccc5C(/C=C/C(=O)c5ccccn5)(c5ccccc54)C3C2=O)cc1 (stereo not given) | 2.55 | 6.85 | 2.07 | 4.64 | 2.98 | > 100 | 2.34 | 6.4 | 1.83 | 3.85 | 4.3 | > 100 | 2 | 5.97 | 3.74 | > 100 | 3.07 | 15.4 | 2.21 | 7.44
4 | C/C(=N\NC(=O)c1ccncc1)c1ccccc1O | 2.94 | 21.3 | 1.64 | > 100 | 26.7 | > 100 | 5.65 | > 100 | 3.35 | > 100 | 1.94 | > 100 | 4.87 | > 100 | 8.66 | > 100 | > 100 | > 100 | 3.04 | 18.9
5 | Cc1ccc(S(=O)(=O)NCc2cccc([N+](=O)[O-])c2)cc1 | – | > 100 | – | > 100 | – | > 100 | – | > 100 | – | > 100 | – | > 100 | – | > 100 | – | > 100 | – | > 100 | – | > 100
6 | CCNc1nc(-c2ccc(Cl)c(OC)c2)c(-c2ccnc(NCCNS(=O)(=O)c3ccc(Cl)cc3)n2)s1 | 3.46 | 13.9 | 3.14 | > 100 | 3.98 | 87.2 | 2.15 | 5.03 | 2.45 | 5.27 | 3.82 | > 100 | 3.67 | > 100 | 2.99 | > 100 | 2 | 4.41 | 2.11 | 5.49
7 | O=C(/C=C/N1CCN(c2cccc(Cl)c2)CC1)c1ccc(Cl)cc1 | 33.9 | > 100 | 44.9 | > 100 | 26.9 | 69.6 | 30 | > 100 | 24.1 | 73.7 | > 100 | > 100 | 49.7 | > 100 | 25.3 | > 100 | 35.3 | > 100 | 27.3 | 83.5
8 | Cc1cc2c(SCc3ccccc3Cl)nc(N)nc2nc1C | – | > 100 | – | > 100 | – | > 100 | – | > 100 | – | > 100 | – | > 100 | – | > 100 | – | > 100 | – | > 100 | – | > 100
9 | O=NNc1nc(-c2ccccn2)nc2ccccc12 | – | 39.9 | – | 42.5 | – | > 100 | – | > 100 | – | > 100 | – | > 100 | – | > 100 | – | > 100 | – | 39.5 | – | 65
